Experimental data from article PMC6556568, “A surface-exposed GH26 β-mannanase from Bacteroides ovatus: Structure, role, and phylogenetic analysis of BoMan26B” (The Journal of Biological Chemistry, 2019).

Target: T1, BoMan26B (Bacteroides ovatus, UniProt A0ABU3IS29)
T1 construct: gene RO706_12620; signal peptide (first 19 residues) removed; recombinant in E. coli BL21(DE3), purified on a HisTrap column; residues 37-361 modelled; catalytic Glu-201 and Glu-291
T1 sequence (A0ABU3IS29 20-360): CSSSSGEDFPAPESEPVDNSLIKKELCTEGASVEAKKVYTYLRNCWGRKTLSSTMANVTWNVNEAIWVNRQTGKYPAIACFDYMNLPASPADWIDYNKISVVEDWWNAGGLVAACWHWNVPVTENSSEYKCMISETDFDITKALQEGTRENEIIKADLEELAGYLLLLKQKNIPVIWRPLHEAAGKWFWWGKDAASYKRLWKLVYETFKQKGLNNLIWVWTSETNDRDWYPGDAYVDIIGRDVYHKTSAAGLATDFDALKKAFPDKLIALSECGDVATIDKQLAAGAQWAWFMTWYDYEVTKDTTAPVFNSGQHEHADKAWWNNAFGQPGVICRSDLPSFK
Assay: hydrolysis in H2^[…], MALDI-TOF MS and HPAEC-PAD
Assay type: biochemical
Settings: 2 mM M6, 1 mM CaCl2, potassium phosphate pH 6.5, 8 °C

For `OC[C@H]1O[C@@H](O[C@H]2[C@H](O)[C@H](O)[C@H](O[C@H]3[C@H](O)[C@H](O)[C@H](O[C@H]4[C@H](O)[C@H](O)[C@H](O[C@H]5[C@H](O)[C@H](O)[C@H](O[C@H]6[C@H](O)[C@H](O)C(O)O[C@@H]6CO)O[C@@H]5CO)O[C@@H]4CO)O[C@@H]3CO)O[C@@H]2CO)[C@@H](O)[C@@H](O)[C@@H]1O` (stereo partly shown) [M6, mannohexaose], the “hydrolysis in H2^18O, MALDI-TOF MS and HPAEC-PAD” value was “The main hydrolytic events of BoMan26B on M6 result in production of mannose”.
